Reference: patent publication US8546428B2 (priority 2006, dated 2013)

Assays:
[1] = in vivo, po
[2] = hygroscopicity of the salt; format: physicochemical

For COc1nc2ccc(Br)cc2cc1[C@@H](c1ccccc1)[C@@](O)(CCN(C)C)c1cccc2ccccc12.O=C(O)/C=C/C(=O)O [Present fumarate salt, (alpha S, beta R)-6-bromo-alpha-[2-(dimethylamino)ethyl]-2-methoxy-alpha-1-naphthalenyl-beta-phenyl-3-quinolineethanol (2E)-2-butenedioate (1:1)], the “bioavailability, fed subjects compared to fasted subjects” value [1] was “higher bioavailability” and the hygroscopicity [2] was “non-hygroscopic”.
